According to patent US12410123B2, “N-[8-(2-hydroxybenzoyl)amino]potassium octanoate crystal polymorph, and preparation method therefor and use thereof” (SCIWIND BIOSCIENCES CO., LTD., priority 2020, dated 2025):

Key:
Format in all cases: physicochemical
[1] = Solution stability of different crystal forms of PNAC in aqueous solution (500 mg/mL); details: 500 mg/mL in purified water
Description: The stability differences between different salt forms and different crystal forms in aqueous solution under the condition of high concentration (500 mg/mL) were compared, and the results are shown in Table 5 (there is no difference in the dissolution and solution storage process of the samples of PNAC crystal forms I-IV).

[2] = Stability during preparation (grinding, tableting, airflow crushing; XRPD)
Description: Three groups of solid samples were characterized by XRPD to evaluate their physical stability.

[3] = Solid-state stability of PNAC crystal forms (storage; XRPD and HPLC)
Description: The third group was kept under the conditions of 25° C. and 60% relative humidity for 2 weeks to obtain a solid sample, and then the three groups of solid samples were respectively evaluated for physical and chemical stability by XRPD and HPLC assay.
The purity of main peak was calculated by normalization method.

[4] = Airflow crushing (injection pressure 0.4 MPa, pulverization pressure 0.2 MPa)
[5] = solid, 60° C. for 24 h, 40° C. and 75% relative humidity for two weeks, 25° C. and 60% relative humidity for 2 weeks

Row | Compound | storage time at which flocs began to appear in the solution ([1]; 4° C.) | storage time at which flocs began to appear in the solution ([1]; room temperature) | change of crystal form after grinding, tableting and airflow crushing (XRPD) [2] | crystal form after treatment (XRPD) [2, 4] | crystal form after treatment (XRPD) ([2]; Manual grinding (10 min)) | crystal form after treatment (XRPD) ([2]; Tableting (pressure of 3 kN)) | overall solid-state stability (conclusion from Table 15) [3] | crystal form after treatment (XRPD) ([3]; 25° C./60% RH, 2 W) | crystal form after treatment (XRPD) ([3]; 25° C./75% RH, 2 W) | crystal form after treatment (XRPD) ([3]; 60° C., 24 h) | crystal form after storage (XRPD) [3, 5] | relative purity (HPLC) after storage [3, 5]
1 | O=C([O-])CCCCCCCNC(=O)c1ccccc1O.[Na+] [SNAC, monosodium N-[8-(2-hydroxybenzoyl)amino]octanoate] | 0.5 h | 1 h |  |  |  |  |  |  |  |  |  | 
2 | O=C([O-])CCCCCCCNC(=O)c1ccccc1O.[K+] [crystal Form I, Potassium N-[8-(2-hydroxybenzoyl)amino]octanoate] |  |  | does not change | crystal Form I | crystal Form I | crystal Form I | very stable | crystal Form II | crystal Form II | crystal Form I |  | 
3 | O=C([O-])CCCCCCCNC(=O)c1ccccc1O.[K+] [crystal Form II, Potassium N-[8-(2-hydroxybenzoyl)amino]octanoate] |  |  | does not change | crystal Form II | crystal Form II | crystal Form II | very stable | crystal Form II | crystal Form II | crystal Form II | the crystal form has not changed | 100%
4 | O=C([O-])CCCCCCCNC(=O)c1ccccc1O.[K+] [crystal Form III, Potassium N-[8-(2-hydroxybenzoyl)amino]octanoate] |  |  |  |  |  |  |  | crystal Form II | crystal Form II | crystal Form I |  | 
5 | O=C([O-])CCCCCCCNC(=O)c1ccccc1O.[K+] [crystal Form IV, Potassium N-[8-(2-hydroxybenzoyl)amino]octanoate] |  |  |  | crystal Form IV | crystal Form IV | crystal Form IV |  | crystal Form II | crystal Form II | crystal Form I |  | 
